One may read the melting point as the temperature of the solid-liquid transition. In the case of `COCCc1nc2c(N)nc3cc(-c4ccccc4)ccc3c2n1CCCN1CCCC1=O` [Example 206, 1-{3-[4-Amino-2-(2-methoxyethyl)-7-phenyl-1H-imidazo[4,5-c]quinolin-1-yl]propyl}pyrrolidin-2-one], the melting point lay in the range of 187 to 191 °C.
Regarding `CCOCc1nc2c(N)nc3cc(-c4cccnc4)ccc3c2n1CC(C)(C)OCCS(C)(=O)=O` [Example 363, 2-Ethoxymethyl-1-{2-[2-(methanesulfonyl)ethoxy]-2-methylpropyl}-7-(pyridin-3-yl)-1H-imidazo[4,5-c]quinolin-4-amine], the melting point lay in the range of 202 to 204 °C.
`CCOCc1nc2c(N)nc3cc(-c4cncc(OC)c4)ccc3c2n1CC(C)(C)OCCS(C)(=O)=O` [Example 364, 2-Ethoxymethyl-1-{2-[2-(methanesulfonyl)ethoxy]-2-methylpropyl}-7-(5-methoxypyridin-3-yl)-1H-imidazo[4,5-c]quinolin-4-amine] displayed a melting point of 186 to 188 °C.
With `CCOCc1nc2c(N)nc3cc(-c4cccnc4)ccc3c2n1CCCCS(=O)(=O)N(C)C` [Example 365, Dimethyl 4-[4-amino-2-ethoxymethyl-7-(pyridin-3-yl)-1H-imidazo[4,5-c]quinolin-1-yl]butane-1-sulfonamide] the figure was 205 to 206 °C; with `CCOCc1nc2c(N)nc3cc(-c4ccccc4)ccc3c2n1CCCCS(=O)(=O)N(C)C` [Example 366, Dimethyl 4-[4-amino-2-ethoxymethyl-7-phenyl-1H-imidazo[4,5-c]quinolin-1-yl]butane-1-sulfonamide], 207 to 208 °C; with `CCOCc1nc2c(N)nc3cc(-c4cccnc4)ccc3c2n1CCCCS(=O)(=O)NCc1ccc(OC)cc1` [Example 367, 4-Methoxybenzyl 4-[4-amino-2-ethoxymethyl-7-(pyridin-3-yl)-1H-imidazo[4,5-c]quinolin-1-yl]butane-1-sulfonamide], 230 to 231.5 °C.
Then `CCOCc1nc2c(N)nc3cc(-c4cccnc4)ccc3c2n1CCCCS(N)(=O)=O` [Example 368, 4-[4-Amino-2-ethoxymethyl-7-(pyridin-3-yl)-1H-imidazo[4,5-c]quinolin-1-yl]butane-1-sulfonamide], with 250 to 251.5 °C.
Turning to `CCOCc1nc2c(N)nc3cc(-c4cccnc4)ccc3c2n1CCCCS(=O)(=O)NC` [Example 369, Methyl 4-[4-amino-2-ethoxymethyl-7-(pyridin-3-yl)-1H-imidazo[4,5-c]quinolin-1-yl]butane-1-sulfonamide], the melting point was 216 to 218 °C.
With `CCOCc1nc2c(N)nc3cc(-c4cccnc4)ccc3c2n1CCCCCS(=O)(=O)N(C)C` [Example 370, Dimethyl 5-[4-amino-2-ethoxymethyl-7-(pyridin-3-yl)-1H-imidazo[4,5-c]quinolin-1-yl]pentane-1-sulfonamide] the figure was 159 to 160 °C; with `CCOCc1nc2c(N)nc3cc(-c4cccnc4)ccc3c2n1CCCCCS(=O)(=O)NC` [Example 371, Methyl 5-[4-amino-2-ethoxymethyl-7-(pyridin-3-yl)-1H-imidazo[4,5-c]quinolin-1-yl]pentane-1-sulfonamide], 191 to 192 °C; with `CCCC(=O)NCCCCn1c(COCC)nc2c(N)nc3cc(-c4cccnc4)ccc3c21` [Example 372, N-{4-[4-Amino-2-ethoxymethyl-7-(pyridin-3-yl)-1H-imidazo[4,5-c]quinolin-1-yl]butyl}butyramide], 150 to 152 °C.
Then `CCOCc1nc2c(N)nc3cc(-c4cccnc4)ccc3c2n1CCCCNC(=O)C(C)C` [Example 373, N-{4-[4-Amino-2-ethoxymethyl-7-(pyridin-3-yl)-1H-imidazo[4,5-c]quinolin-1-yl]butyl}-2-methylpropanamide], with 200 to 202 °C.
Then `CCCS(=O)(=O)NCCCCn1c(COCC)nc2c(N)nc3cc(-c4cccnc4)ccc3c21` [Example 376, N-{4-[4-Amino-2-ethoxymethyl-7-(pyridin-3-yl)-1H-imidazo[4,5-c]quinolin-1-yl]butyl}propane-1-sulfonamide], with 178 to 180 °C; and `CCOCc1nc2c(N)nc3cc(-c4cccnc4)ccc3c2n1CCCCNC(=O)NC1CCCC1` [Example 377, N-{4-[4-Amino-2-ethoxymethyl-7-(pyridin-3-yl)-1H-imidazo[4,5-c]quinolin-1-yl]butyl}-N′-cyclopentylurea], with 190 to 192 °C.
As for `CCCNC(=O)NCCCCn1c(COCC)nc2c(N)nc3cc(-c4cccnc4)ccc3c21` [Example 378, N-{4-[4-Amino-2-ethoxymethyl-7-(pyridin-3-yl)-1H-imidazo[4,5-c]quinolin-1-yl]butyl}-N′-propylurea], the melting point lay in the range of 191 to 193 °C.
With `CCOCc1nc2c(N)nc3cc(-c4cccnc4)ccc3c2n1CCCCNC(=O)NC(C)C` [Example 379, N-{4-[4-Amino-2-ethoxymethyl-7-(pyridin-3-yl)-1H-imidazo[4,5-c]quinolin-1-yl]butyl}-N′-(1-methylethyl)urea], the melting point was 192 to 194 °C.
In turn, `CCOCc1nc2c(N)nc3cc(-c4cccnc4)ccc3c2n1CCNC(=O)C(C)C` [Example 386, N-{2-[4-Amino-2-ethoxymethyl-7-(pyridin-3-yl)-1H-imidazo[4,5-c]quinolin-1-yl]ethyl}-2-methylpropanamide] registered a melting point of 213 to 215 °C.
Then `CCOCc1nc2c(N)nc3cc(-c4cccnc4)ccc3c2n1CCNS(C)(=O)=O` [Example 387, N-{2-[4-Amino-2-ethoxymethyl-7-(pyridin-3-yl)-1H-imidazo[4,5-c]quinolin-1-yl]ethyl}methanesulfonamide], with 233 to 235 °C; and `CCOCc1nc2c(N)nc3cc(-c4cccnc4)ccc3c2n1CCNC(=O)NC(C)C` [Example 388, N-{2-[4-Amino-2-ethoxymethyl-7-(pyridin-3-yl)-1H-imidazo[4,5-c]quinolin-1-yl]ethyl}-N′-(1-methylethyl)urea], with 194 to 196 °C.
With `CCOCc1nc2c(N)nc3cc(-c4cccnc4)ccc3c2n1CCN1CCCS1(=O)=O` [Example 389, 1-[2-(1,1-Dioxo-1-isothiazolidin-2-yl)ethyl]-2-ethoxymethyl-7-(pyridin-3-yl)-1H-imidazo[4,5-c]quinolin-4-amine] the figure was 244 to 246 °C; with `CCCCc1nc2c(N)nc3cc(-c4cccnc4)ccc3c2n1CCNC(=O)C(C)C` [Example 390, N-{2-[4-Amino-2-butyl-7-(pyridin-3-yl)-1H-imidazo[4,5-c]quinolin-1-yl]ethyl}-2-methylpropanamide], 228 to 230 °C.
On to `CCCCc1nc2c(N)nc3cc(-c4cccnc4)ccc3c2n1CCNC(=O)NC(C)C` [Example 392, N-{2-[4-Amino-2-butyl-7-(pyridin-3-yl)-1H-imidazo[4,5-c]quinolin-1-yl]ethyl}-N′-(1-methylethyl)urea], for which the melting point lay in the range of 240 to 241 °C.
Then `CCCCc1nc2c(N)nc3cc(-c4cccnc4)ccc3c2n1CCN1CCCS1(=O)=O` [Example 393, 1-[2-(1,1-Dioxo-1-isothiazolidin-2-yl)ethyl]-2-butyl-7-(pyridin-3-yl)-1H-imidazo[4,5-c]quinolin-4-amine], with 290 to 292 °C.

The record behind these values is patent publication US7598382B2, “Aryl substituted imidazoquinolines” (Coley Pharmaceutical Group, Inc., priority 2002, dated 2009).
